These results are taken from patent US8202885B2, “Bridged six-membered ring compounds” (Actelion Pharmaceuticals Ltd., priority 2007, dated 2012).

Each structure is given as a SMILES string. Some results are limits rather than exact numbers.

Broadly, the IC50 is the concentration needed to halve the response being measured.

The test system of this assay is human Cav3.1 Cav3.2 or Cav3.3 channel. Nature of the assay: In vitro assay T channel (FLIPR calcium fluorescence). The class given is cell-based. Particulars: HEK293 cells expressing human Cav3.1, Cav3.2 or Cav3.3; 10 mM Ca2+-induced fluo-4 fluorescence; determined up to 10 μM; read-out: T channel antagonistic activity IC50. As to the method:
The T channel antagonistic activity (IC50 values) of the compounds of formula (I) is determined in accordance with the following experimental method and data are shown in Table 1.
Human embryonic kidney (HEK293) cells expressing the human Cav3.1 Cav3.2 or Cav3.3 channel, respectively, are grown in culture medium (DMEM containing 10% heat-inactivated fetal calf serum (FCS), 100 U/ml penicillin, 100 μg/ml streptomycin and 1 mg/ml G418). The cells are seeded at 20.000 cells/well into 384-well black clear bottom sterile plates (poly-L-lysine-coated, Becton Dickinson). The seeded plates are incubated overnight at 37° C. in 5% CO2. The Ca^2+ solution is prepared as 100 mM stock solution in 100 mM tetraethylammoniumchloride (TEA-chloride), 50 mM HEPES, 2.5 mM CaCl2, 5 mM KCl, 1 mM MgCl2, adjusted to pH 7.2 with TEA-hydroxide, for use in the assay at a final concentration of 10 mM. Antagonists are prepared as 10 mM stock solutions in DMSO, then diluted in 384 w plates first in DMSO, then in 100 mM TEA-chloride, 50 mM HEPES, 2.5 mM CaCl2, 5 mM KCl, 1 mM MgCl2, adjusted to pH 7.2 with TEA-hydroxide, to obtain 9× stocks. On the day of the assay, 25 μl of staining buffer (HBSS containing 20 mM HEPES, 0.375 g/l NaHCO3 and 3 μM of the fluorescent calcium indicator fluo-4 AM (1 mM stock solution in DMSO, containing 10% pluronic) is added to each well of the seeded plate. The 384-well cell-plates are incubated for 60 min at 37° C. in 5% CO2 followed by washing with 2×50 μl per well using HBSS containing 0.1% BSA, 20 mM HEPES, 0.375 g/l NaHCO3, leaving 50 […] of this buffer for equilibration at room temperature (30-60 min). Within the Fluorescent Imaging Plate Reader (FLIPR, Molecular Devices), antagonists are added to the plate in a volume of 6.25 μl/well, incubated for 3 min, and finally 6.25 […] of Ca^2+ solution is added. Fluorescence is measured for each well at 2 second intervals for 8 minutes, and the area under the curve of each fluorescence peak is compared to the area of the fluorescence peak induced by 10 mM Ca^2+ with vehicle in place of antagonist. For each antagonist, the IC50 value (the concentration (in nM) of compound needed to inhibit 50% of the Ca^2+-induced fluorescence response) up to 10 μM is determined.
In the case of `CN(CCCc1nc2ccccc2[nH]1)CC[C@]1(O)C[C@H]2CC[C@@H]1C=C2c1nccs1` (relative stereo) [Example 24, rac-(1R*,2R*,4R*)-2-(2-{[3-(1H-Benzoimidazol-2-yl)-propyl]-methyl-amino}-ethyl)-5-thiazol-2-yl-bicyclo[2.2.2]oct-5-en-2-ol], the IC50 was above 10 µM.

On to `CC(C)Oc1cccc2nc(CCCN(C)CC[C@]3(OC(=O)C(C)C)C[C@H]4CC[C@@H]3C=C4c3ccccc3)[nH]c12` (relative stereo) [Example 33A, rac-Isobutyric acid (1R*,2R*,4R*)-2-(2-{[3-(7-isopropoxy-1H-benzoimidazol-2-yl)-propyl]-methyl-amino}-ethyl)-5-phenyl-bicyclo[2.2.2]oct-5-en-2-yl ester], for which the concentration for half-maximal inhibition (IC50) turned out to be 1.66 µM.

In the case of `COc1cccc2[nH]c(CCCN(C)CC[C@]3(O)C[C@H]4CC[C@@H]3C=C4c3ccccc3)nc12` (relative stereo) [Example 26, rac-(1R*,2R*,4R*)-2-(2-{[3-(4-Methoxy-1H-benzoimidazol-2-yl)-propyl]-methyl-amino}-ethyl)-5-phenyl-bicyclo[2.2.2]oct-5-en-2-ol], the IC50 is above 10 µM.

As for `COc1cccc2[nH]c(CCCN(C)CC[C@]3(OC(=O)NC(C)C)C[C@H]4CC[C@@H]3C=C4c3ccccc3)nc12` (relative stereo) [Example 26E, rac-Isopropyl-carbamic acid (1R*,2R*,4R*)-2-(2-{[3-(4-methoxy-1H-benzoimidazol-2-yl)-propyl]-methyl-amino}-ethyl)-5-phenyl-bicyclo[2.2.2]oct-5-en-2-yl ester], the half-maximal inhibitory concentration (IC50) was 1.11 µM.

With `CN(CCCc1nc2ccccc2[nH]1)CC[C@]1(O)C[C@H]2CC[C@@H]1C=C2c1cccc(F)c1` (relative stereo) [Example 7, rac-(1R*,2R*,4R*)-2-(2-{[3-(1H-Benzoimidazol-2-yl)-propyl]-methyl-amino}-ethyl)-5-(3-fluoro-phenyl)-bicyclo[2.2.2]oct-5-en-2-ol], the half-inhibitory concentration (IC50) amounted to 4.4 µM.

Regarding `CN(CCCc1nc2ccccc2[nH]1)CCC1(O)CC2CCC1C=C2c1ccccc1` (single isomer, unassigned) [Example 11, (1R,2R,4R)-2-(2-{[3-(1H-Benzoimidazol-2-yl)-propyl]-methyl-amino}-ethyl)-5-phenyl-bicyclo[2.2.2]oct-5-en-2-ol or (1S,2S,4S)-2-(2-{[3-(1H-benzoimidazol-2-yl)-propyl]-methyl-amino}-ethyl)-5-phenyl-bicyclo[2.2.2]oct-5-en-2-ol], the half-inhibitory concentration (IC50) is above 10 µM.

Regarding `CC(C)C(=O)O[C@@]1(CCN(C)CCCc2nc(-c3ccccc3)c(-c3ccccc3)[nH]2)C[C@H]2CC[C@@H]1C=C2c1ccccc1` (relative stereo) [Example 47A, rac-Isobutyric acid (1R*,2R*,4R*)-2-(2-{[3-(4,5-diphenyl-1H-imidazol-2-yl)-propyl]-methyl-amino}-ethyl)-5-phenyl-bicyclo[2.2.2]oct-5-en-2-yl ester], the IC50 worked out at 8.03 µM.

Turning to `Cc1ccc(C2=C[C@H]3CC[C@@H]2C[C@@]3(O)CCN(C)CCCc2nc3ccccc3[nH]2)cc1` (relative stereo) [Example 6, rac-(1R*,2R*,4R*)-2-(2-{[3-(1H-Benzoimidazol-2-yl)-propyl]-methyl-amino}-ethyl)-5-(4-methyl-phenyl)-bicyclo[2.2.2]oct-5-en-2-ol], the IC50 amounted to 4.85 µM.

`CC(C)Oc1cccc2nc(CCCN(C)CC[C@]3(O)C[C@H]4CC[C@@H]3C=C4c3ccccc3)[nH]c12` (relative stereo) [Example 33, rac-(1R*,2R*,4R*)-2-(2-{[3-(7-Isopropoxy-1H-benzoimidazol-2-yl)-propyl]-methyl-amino}-ethyl)-5-phenyl-bicyclo[2.2.2]oct-5-en-2-ol]: the concentration for half-maximal inhibition (IC50) turned out to be 2.99 µM.

For the compound `COc1cc2nc(CCCN(C)CC[C@]3(O)C[C@H]4CC[C@@H]3C=C4c3ccccc3)[nH]c2cc1OC` (relative stereo) [Example 28, rac-(1R*,2R*,4R*)-2-(2-{[3-(5,6-Dimethoxy-1H-benzoimidazol-2-yl)-propyl]-methyl-amino}-ethyl)-5-phenyl-bicyclo[2.2.2]oct-5-en-2-ol], the 50% inhibitory concentration (IC50) came out at 2.53 µM.
